# Measurements published in US20220402935A1, “HETEROCYCLIC COMPOUND” (FIMECS, INC., priority 2019, published 2022).
# pIC50: −log10 of the molar value.
# Legend:
# IRAK-M [1] = target: T1, IRAK-M (Homo sapiens, UniProt Q9Y616); assay: In vitro degradation activity of target protein (IRAK-M ELISA in THP1 cells); type: cell-based; parameters: host or cells: THP1 cells; conditions: 24 hours, second symbol of cell, read-out: IRAK-M 50% degradation concentration (DC50 value)
# T1 sequence (Q9Y616 1-596): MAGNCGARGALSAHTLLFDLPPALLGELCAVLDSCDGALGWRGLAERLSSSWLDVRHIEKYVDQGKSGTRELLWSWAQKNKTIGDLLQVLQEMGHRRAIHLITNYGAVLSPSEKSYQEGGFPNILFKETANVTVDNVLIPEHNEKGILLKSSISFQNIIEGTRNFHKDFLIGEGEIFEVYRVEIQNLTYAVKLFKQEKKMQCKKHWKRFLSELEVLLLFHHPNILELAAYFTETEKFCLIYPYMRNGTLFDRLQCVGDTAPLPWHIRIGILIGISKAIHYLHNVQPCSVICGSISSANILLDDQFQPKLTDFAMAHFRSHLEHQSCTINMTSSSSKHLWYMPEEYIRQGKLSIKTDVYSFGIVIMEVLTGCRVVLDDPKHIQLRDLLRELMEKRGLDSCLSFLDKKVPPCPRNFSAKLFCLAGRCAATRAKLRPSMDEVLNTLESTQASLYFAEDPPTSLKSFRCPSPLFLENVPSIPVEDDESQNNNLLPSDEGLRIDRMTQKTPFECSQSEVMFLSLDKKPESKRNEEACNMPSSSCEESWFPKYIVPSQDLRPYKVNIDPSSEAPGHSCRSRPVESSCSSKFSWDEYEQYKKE
# Description: In vitro degradation activities of target protein of the example compounds were evaluated using Enzyme-linked immuno-sorbent assay (ELISA) by the following assay steps. THP1 cells (ATCC, TIB-202) were cultured in RPMI-1640 supplemented with 10% FBS, lx sodium pyruvate, lx HEPES, D-(+)-glucose and 1% penicillin/streptomycin. THP1 cells were seeded at a density of 1×10^6 cells/well in 24-well plate and treated with DMSO control or test compound, and then incubated for 24 hours. The cells were collected and lysed on ice for 30 minutes in lysis buffer (PBS containing 0.1% Triton X-100) containing a protease inhibitor cocktail (Roche, Cat #11836170001). The lysates were sonicated for 30 sec ON/30 sec OFF for ten cycles and centrifuged for 10 minutes at 13k rpm at 4° C. Protein concentrations were determined by the BCA assay (Sigma, Cat #QPBCA-1KT). The ELISA assay was performed using the Human IRAK3/IRAKM/IRAK-M ELISA Kit (LifeSpan BioSciences, Cat #LS-F35271), and the protein levels of IRAK-M were evaluated according to the kit protocol. As to the IRAK-M degradation rate of test compounds, protein degradation rate (%) when the concentration of the test compound is […] described as A≥75%, 50%≤B<75%, 25%≤C<50%, D<25%, or 50% degradation concentration (DC50 value) described as A<0.03 μM, 0.03 μM≤B<0.1 μM, 0.1 μM≤C<0.3 μM, 0.3 μM≤D<1 μM, is shown in the table below.
# [2] = target: T2, human XIAP_BIR3 domain purified protein (Homo sapiens, UniProt P98170); assay: XIAP binding inhibitory activity (HTRF, b-Smac ligand); conditions: second symbol of cell; read-out: XIAP binding inhibition IC50 value
# T2 construct: purchased R & D
# T2 sequence (P98170 252-356 limits assumed): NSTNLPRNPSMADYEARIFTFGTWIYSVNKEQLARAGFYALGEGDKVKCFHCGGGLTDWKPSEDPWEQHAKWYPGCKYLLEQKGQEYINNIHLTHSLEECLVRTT
# Procedure, shortened: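 HTRF competition between compound and C-terminally biotinylated Smac peptide AVPIAQK for His-tagged XIAP BIR3, both diluted to 90 nM before addition, in pH 7.5 HEPES/NaCl/BSA/Triton buffer. Eu-cryptate anti-His and streptavidin-XL665 added, ≥4 h at room temperature in the dark; inhibition % from 665/615 nm ratio versus no-compound wells.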
# IRAK-M [3] = target: T1, IRAK-M; assay: IRAK-M binding inhibitory activity (KINOMEscan active site-dependent competitive assay); parameters: purchased Eurofins Discover X; conditions: concentration of the test compound 1 μM; first symbol of cell; read-out: IRAK-M binding inhibition activity % Ctrl
# Procedure, shortened: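 Readout given as % Ctrl, with DMSO as 100% and a control compound as 0%, scaling the test compound signal between them. Binding to human IRAK-M was assessed by KINOMEscan competition at the kinase active site.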
SMILES,DC50 (IRAK-M [1]) [µM],pIC50 [2],remaining binding at 1 µM (IRAK-M [3]) [%]
"CN[C@@H](C)C(=O)N[C@H](C(=O)N1CCN(C(=O)c2c(C)c3cc(F)ccc3n2CC(=O)N(C)CCOCCOCCOCCOc2cc(CN3CCC(Oc4ccnc5ccsc45)CC3)on2)CC1)C1CCCCC1 [Example 33, (S)-N-((S)-1-cyclohexyl-2-(4-(5-fluoro-3-methyl-1-(3-methyl-2-oxo-14-((5-((4-(thieno[3,2-b]pyridin-7-yloxy)piperidin-1-yl)methyl)isoxazol-3-yl)oxy)-6,9,12-trioxa-3-azatetradecyl)-1H-indole-2-carbonyl)piperazin-1-yl)-2-oxoethyl)-2-(methylamino)propanamide]",0.3 to 1,4.52 to 5.52,< 25
"CN[C@@H](C)C(=O)N[C@H](C(=O)N1CCN(C(=O)c2c(Cl)c3cc(F)ccc3n2CC(=O)N(C)CCOCCOCCOCCOc2cc(CN3CCC(Oc4ccnc5ccsc45)CC3)on2)CC1)C1CCCCC1 [Example 34, (S)-N-((S)-2-(4-(3-chloro-5-fluoro-1-(3-methyl-2-oxo-14-((5-((4-(thieno[3,2-b]pyridin-7-yloxy)piperidin-1-yl)methyl)isoxazol-3-yl)oxy)-6,9,12-trioxa-3-azatetradecyl)-1H-indole-2-carbonyl)piperazin-1-yl)-1-cyclohexyl-2-oxoethyl)-2-(methylamino)propanamide]",0.3 to 1,4.52 to 5.52,25 to 50
"CN[C@@H](C)C(=O)N[C@H](C(=O)N1CCN(C(=O)c2c(C)c3ccccc3n2CC(=O)N(C)CCOCCOCCOCCOc2cc(CN3CCC(Oc4ccnc5ccsc45)CC3)on2)CC1)C1CCCCC1 [Example 35, (S)-N-((S)-1-cyclohexyl-2-(4-(3-methyl-1-(3-methyl-2-oxo-14-((5-((4-(thieno[3,2-b]pyridin-7-yloxy)piperidin-1-yl)methyl)isoxazol-3-yl)oxy)-6,9,12-trioxa-3-azatetradecyl)-1H-indole-2-carbonyl)piperazin-1-yl)-2-oxoethyl)-2-(methylamino)propanamide]",0.3 to 1,4.52 to 5.52,25 to 50
"CN[C@@H](C)C(=O)N[C@H](C(=O)N1CCN(C(=O)c2c(F)c3cc(F)ccc3n2CC(=O)N(C)CCOCCOCCOCCOc2cc(CN3CCC(Oc4ccnc5ccsc45)CC3)on2)CC1)C1CCCCC1 [Example 36, (S)-N-((S)-1-cyclohexyl-2-(4-(3,5-difluoro-1-(3-methyl-2-oxo-14-((5-((4-(thieno[3,2-b]pyridin-7-yloxy)piperidin-1-yl)methyl)isoxazol-3-yl)oxy)-6,9,12-trioxa-3-azatetradecyl)-1H-indole-2-carbonyl)piperazin-1-yl)-2-oxoethyl)-2-(methylamino)propanamide]",0.3 to 1,4.52 to 5.52,25 to 50
"CN[C@@H](C)C(=O)N[C@H](C(=O)N1CCN(C(=O)c2c(F)c3ccccc3n2CC(=O)N(C)CCOCCOCCOCCOc2cc(CN3CCC(Oc4ccnc5ccsc45)CC3)on2)CC1)C1CCCCC1 [Example 37, (S)-N-((S)-1-cyclohexyl-2-(4-(3-fluoro-1-(3-methyl-2-oxo-14-((5-((4-(thieno[3,2-b]pyridin-7-yloxy)piperidin-1-yl)methyl)isoxazol-3-yl)oxy)-6,9,12-trioxa-3-azatetradecyl)-1H-indole-2-carbonyl)piperazin-1-yl)-2-oxoethyl)-2-(methylamino)propanamide]",0.3 to 1,4.52 to 5.52,≥ 75
"CN[C@@H](C)C(=O)N[C@H](C(=O)N1CCN(C(=O)c2c(Cl)c3ccccc3n2CC(=O)N2CCC[C@H]2COc2cc(CN3CCC(Oc4ccnc5ccsc45)CC3)on2)CC1)C1CCCCC1 [Example 38, (S)-N-((S)-2-(4-(3-chloro-1-(2-oxo-2-((S)-2-(((5-((4-(thieno[3,2-b]pyridin-7-yloxy)piperidin-1-yl)methyl)isoxazol-3-yl)oxy)methyl)pyrrolidin-1-yl)ethyl)-1H-indole-2-carbonyl)piperazin-1-yl)-1-cyclohexyl-2-oxoethyl)-2-(methylamino)propanamide]",0.3 to 1,4.52 to 5.52,25 to 50
"CN[C@@H](C)C(=O)N[C@H](C(=O)N1CCN(C(=O)c2c(C)c3cc(F)ccc3n2CC(=O)N2CCC[C@H]2COc2cc(CN3CCC(Oc4ccnc5ccsc45)CC3)on2)CC1)C1CCCCC1 [Example 39, (S)-N-((S)-1-cyclohexyl-2-(4-(5-fluoro-3-methyl-1-(2-oxo-2-((S)-2-(((5-((4-(thieno[3,2-b]pyridin-7-yloxy)piperidin-1-yl)methyl)isoxazol-3-yl)oxy)methyl)pyrrolidin-1-yl)ethyl)-1H-indole-2-carbonyl)piperazin-1-yl)-2-oxoethyl)-2-(methylamino)propanamide]",0.1 to 0.3,4.52 to 5.52,25 to 50
"CN[C@@H](C)C(=O)N[C@H](C(=O)N1CCN(C(=O)c2c(Cl)c3cc(F)ccc3n2CC(=O)N2CCC[C@H]2COc2cc(CN3CCC(Oc4ccnc5ccsc45)CC3)on2)CC1)C1CCCCC1 [Example 40, (S)-N-((S)-2-(4-(3-chloro-5-fluoro-1-(2-oxo-2-((S)-2-(((5-((4-(thieno[3,2-b]pyridin-7-yloxy)piperidin-1-yl)methyl)isoxazol-3-yl)oxy)methyl)pyrrolidin-1-yl)ethyl)-1H-indole-2-carbonyl)piperazin-1-yl)-1-cyclohexyl-2-oxoethyl)-2-(methylamino)propanamide]",0.3 to 1,4.52 to 5.52,25 to 50
"CN[C@@H](C)C(=O)N[C@H](C(=O)N1CCN(C(=O)c2c(F)c3cc(F)ccc3n2CC(=O)N2CCC[C@H]2COc2cc(CN3CCC(Oc4ccnc5ccsc45)CC3)on2)CC1)C1CCCCC1 [Example 41, (S)-N-((S)-1-cyclohexyl-2-(4-(3,5-difluoro-1-(2-oxo-2-((S)-2-(((5-((4-(thieno[3,2-b]pyridin-7-yloxy)piperidin-1-yl)methyl)isoxazol-3-yl)oxy)methyl)pyrrolidin-1-yl)ethyl)-1H-indole-2-carbonyl)piperazin-1-yl)-2-oxoethyl)-2-(methylamino)propanamide]",0.1 to 0.3,4.52 to 5.52,25 to 50
"CN[C@@H](C)C(=O)N[C@H](C(=O)N1CCN(C(=O)c2cc3cc(F)c(F)cc3n2CC(=O)N2CCOC[C@H]2COc2cc(CN3CCC(Oc4ccnc5ccsc45)CC3)on2)CC1)C1CCCCC1 [Example 44, (S)-N-((S)-1-cyclohexyl-2-(4-(5,6-difluoro-1-(2-oxo-2-((S)-3-(((5-((4-(thieno[3,2-b]pyridin-7-yloxy)piperidin-1-yl)methyl)isoxazol-3-yl)oxy)methyl)morpholino)ethyl)-1H-indole-2-carbonyl)piperazin-1-yl)-2-oxoethyl)-2-(methylamino)propanamide]",0.3 to 1,4.52 to 5.52,25 to 50
"CN[C@@H](C)C(=O)N[C@H](C(=O)N1CCN(C(=O)c2cc3c(OCCOCCOCCOCCOc4cc(CN5CCC(Oc6ccnc7ccsc67)CC5)on4)c(F)c(F)cc3n2C)CC1)C1CCCCC1 [Example 51, (S)-N-((S)-1-cyclohexyl-2-(4-(5,6-difluoro-1-methyl-4-(2-(2-(2-(2-((5-((4-(thieno[3,2-b]pyridin-7-yloxy)piperidin-1-yl)methyl)isoxazol-3-yl)oxy)ethoxy)ethoxy)ethoxy)ethoxy)-1H-indole-2-carbonyl)piperazin-1-yl)-2-oxoethyl)-2-(methylamino)propanamide]",0.1 to 0.3,5.52 to 6.52,< 25
